Here are results for 46 molecules from US11547698B2, “Aryl hydrocarbon receptor modulators” (ARIAGEN, INC., priority 2016, dated 2023).

In this series the target is T1, AhR receptor (Homo sapiens, UniProt P35869).
T1 construct: cells of reporter gene expressing natural (Human Hepatoma Huh-7) AhR receptor; endogenous in cells; host or cells: Human hepatoma Huh-7 reporter cells (firefly luciferase under a receptor-specific response element)
T1 sequence (P35869 11-848): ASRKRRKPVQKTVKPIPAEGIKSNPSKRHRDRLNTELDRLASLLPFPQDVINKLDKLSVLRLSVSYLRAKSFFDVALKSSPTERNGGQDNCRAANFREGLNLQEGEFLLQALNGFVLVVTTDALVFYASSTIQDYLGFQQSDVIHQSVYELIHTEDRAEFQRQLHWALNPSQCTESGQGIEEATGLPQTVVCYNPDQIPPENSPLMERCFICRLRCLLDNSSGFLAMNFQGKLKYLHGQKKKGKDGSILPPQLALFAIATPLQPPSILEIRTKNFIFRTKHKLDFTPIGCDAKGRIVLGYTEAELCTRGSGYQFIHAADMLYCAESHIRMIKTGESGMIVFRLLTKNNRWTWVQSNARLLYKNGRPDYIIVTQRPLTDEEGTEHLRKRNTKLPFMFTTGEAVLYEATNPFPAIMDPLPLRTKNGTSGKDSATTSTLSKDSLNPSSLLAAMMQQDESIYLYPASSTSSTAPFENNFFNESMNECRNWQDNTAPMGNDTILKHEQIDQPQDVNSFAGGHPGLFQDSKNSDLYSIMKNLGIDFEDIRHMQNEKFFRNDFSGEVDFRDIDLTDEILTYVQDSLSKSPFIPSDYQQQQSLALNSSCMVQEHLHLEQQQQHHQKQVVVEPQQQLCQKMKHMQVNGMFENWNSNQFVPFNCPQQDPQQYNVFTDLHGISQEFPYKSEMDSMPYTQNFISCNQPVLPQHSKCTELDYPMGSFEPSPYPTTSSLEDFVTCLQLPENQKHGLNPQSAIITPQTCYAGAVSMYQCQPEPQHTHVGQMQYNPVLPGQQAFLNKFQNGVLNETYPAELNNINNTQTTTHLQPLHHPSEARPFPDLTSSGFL
The series can be described thus: AhR agonist assay (luciferase reporter gene cells). It counts as cell-based. As to conditions: reporter cells expressing natural (Human Hepatoma Huh-7) AhR receptor, firefly luciferase, 24 hours at 37° C., 0.1% DMSO. The method, then: Experimental material (plasmids): cells of reporter gene expressing natural (Human Hepatoma Huh-7) AhR receptor, in which reporter vector comprises a functional firefly luciferase gene connecting to an upstream receptor specific genetic response element (GRE).
AhR agonist test includes following three steps:
1, Implanting into cells: a suspension of reporter cell of AhR receptor was prepared in cell recovery medium (CRM; containing 10% charcoal-treated FBS). Then the suspension (100 μL) was assigned to wells in a white culture plate with 96 wells.
2, Before the experiment was about to begin, Master Stocks was diluted to be a processing medium of “concentration of 2 X” by use of appropriate compound screening assay medium (CSM: containing 10% charcoal-treated FBS). Test compounds were diluted with gradient method by use of CSM medium containing 0.2% DMSO to make the final concentration of DMSO in each well of each treatment group being 0.1%. The processing medium was added to culture plate (100 μL/well) on which cells containing reporter gene had been laid in advance in wells by means of double duplicate. The culture plate was placed in an incubator of 37° C. for 24 hours.
3, Fluorescence detection and analysis: after incubation, the processing medium was discarded and luciferase detection reagent was added 100 μL/well. Ave RLU (mean relative fluorescence intensity) of each well and coefficient of variation for each set of experiments were detected. Ratio of Ave RLU^Test Cmpd of treatment groups with test compound of different concentrations to Ave RLU^Vehicle of blank control group can determine activity quantitatively of AhR receptor under influence of test compound of different concentrations and activating multiples as well as EC50.
Processing method of data may refer to J. Biomol.
`COC(=O)c1csc(C(=O)c2cn(COC(=O)[C@@H](N)C(C)C)c3ccccc23)n1` [Compound 1-2] showed a 50% effective concentration (EC50) of 1 to 1000 nM.

In turn, `COC(=O)c1csc(C(=O)c2cn(COC(=O)[C@@H](N)C(C)(C)C)c3ccccc23)n1` [Compound 2-2] gave an EC50 of 1 to 1000 nM.

`COC(=O)COCn1cc(C(=O)c2nc(C(=O)OC)cs2)c2ccccc21` [Compound 3]: the 50% effective concentration (EC50) was in the range of 1 to 1000 nM.

`COC(=O)c1csc(C(=O)c2cn(C(=O)[C@@H](N)C(C)C)c3ccccc23)n1` [Compound 4-2] displayed an EC50 of 1 to 1000 nM.

In the case of `COCCOCCOCCOC(=O)n1cc(C(=O)c2nc(C(=O)OC)cs2)c2ccccc21` [Compound 5], the concentration giving a half-maximal response (EC50) fell in the range of 1 to 1000 nM.

`COCCOCCOCCOCC(=O)OCn1cc(C(=O)c2nc(C(=O)OC)cs2)c2ccccc21` [Compound 6] gave an EC50 of 1 to 1000 nM.

In turn, `COCCOCCOCCOCC(=O)OCC(=O)OCn1cc(C(=O)c2nc(C(=O)OC)cs2)c2ccccc21` [Compound 7] had an EC50 of 1 to 1000 nM.

`COC(=O)c1nsc(C(=O)c2c[nH]c3ccccc23)n1` [Compound 8] yielded an EC50 of 1000 to 10000 nM.

As to `CC(C)c1nc(C(=O)c2c[nH]c3ccccc23)cs1` [Compound 9], the EC50 lay within 1 to 1000 nM.

In the case of `COC(=O)c1ccc(C(=O)c2c[nH]c3ccccc23)n1C` [Compound 12], the 50% effective concentration (EC50) is 1 to 1000 nM.

`COC(=O)c1csc(C(=O)c2c[nH]c3ccccc23)c1` [Compound 15] gave an EC50 of 10000 to 100000 nM.

`COC(=O)c1ccc(C(=O)c2c[nH]c3ccccc23)nc1` [Compound 18] had an EC50 of 1000 to 10000 nM.

As for `COC(=O)C1CSC(C(=O)c2c[nH]c3ccc(OC)cc23)=N1` (stereo not shown) [Compound 19-1], the EC50 lay within 1 to 1000 nM.

On to `COC(=O)c1csc(C(=O)c2c[nH]c3ccc(OC)cc23)n1` [Compound 19-2], for which the EC50 is 1 to 1000 nM.

Molecule `CC(C)c1csc(C(=O)c2c[nH]c3ccccc23)n1` [Compound 21] returned an EC50 of 1 to 1000 nM.

In turn, `O=C(c1nc(-c2ccccn2)cs1)c1c[nH]c2ccccc12` [Compound 22] had an EC50 of 1 to 1000 nM.

In turn, `COC(=O)c1c[nH]c(C(=O)c2c[nH]c3ccccc23)n1` [Compound 23] showed an EC50 of 1 to 1000 nM.

Turning to `CO/N=C(/c1nc(C(=O)OC)cs1)c1c[nH]c2ccccc12` [Compound 25-1], the EC50 lay within 1000 to 10000 nM.

`CO/N=C(\c1nc(C(=O)OC)cs1)c1c[nH]c2ccccc12` [Compound 25-2]: the EC50 was in the range of 1000 to 10000 nM.

For the molecule `COC(=O)c1csc(/C(=N/O)c2c[nH]c3ccccc23)n1` [Compound 26-1], the EC50 lay within 1000 to 10000 nM.

In turn, `COC(=O)c1csc(/C(=N\O)c2c[nH]c3ccccc23)n1` [Compound 26-2] had an EC50 of 1000 to 10000 nM.

For the molecule `COC(=O)CNC(=O)c1csc(C(=O)c2c[nH]c3ccccc23)n1` [Compound 27], the half-maximal effective concentration (EC50) lay within 1 to 1000 nM.

`COC(=O)c1csc(Cc2c[nH]c3ccccc23)n1` [Compound 28]: the EC50 was in the range of 10000 to 100000 nM.

`COC(=O)[C@@H]1COC(c2csc(C(=O)c3c[nH]c4ccccc34)n2)=N1` [Compound 30-1] came in with an EC50 of 1 to 1000 nM.

`COC(=O)c1coc(-c2csc(C(=O)c3c[nH]c4ccccc34)n2)n1` [Compound 30-2] came in with an EC50 of 1 to 1000 nM.

`O=C(c1nc(C2=NCCS2)cs1)c1c[nH]c2ccccc12` [Compound 31-1] yielded an EC50 of 1 to 1000 nM.

In turn, `O=C(c1nc(-c2nccs2)cs1)c1c[nH]c2ccccc12` [Compound 31-2] showed an EC50 of 1 to 1000 nM.

On to `COC(=O)C1CSC(c2csc(C(=O)c3c[nH]c4ccccc34)n2)=N1` (stereo not shown) [Compound 32-1], for which the EC50 lay in the range of 1 to 1000 nM.

Consider `COC(=O)c1csc(-c2csc(C(=O)c3c[nH]c4ccccc34)n2)n1` [Compound 32-2], for which the EC50 was in the range of 1 to 1000 nM.

The molecule `O=C(c1nc(C2=NCCO2)cs1)c1c[nH]c2ccccc12` [Compound 33-1] displayed an EC50 of 1 to 1000 nM.

Turning to `O=C(c1nc(-c2ncco2)cs1)c1c[nH]c2ccccc12` [Compound 33-2], the EC50 lay in the range of 1 to 1000 nM.

Molecule `COC(=O)c1nnc(C(=O)c2c[nH]c3ccccc23)o1` [Compound 34] gave an EC50 of 1000 to 10000 nM.

`O=C(c1nc(-c2nnn[nH]2)cs1)c1c[nH]c2ccccc12` [Compound 35] had a half-maximal effective concentration (EC50) of 1000 to 10000 nM.

In turn, `O=C(c1nc(-c2nnc[nH]2)cs1)c1c[nH]c2ccccc12` [Compound 36] gave a concentration for a half-maximal effect (EC50) of 1 to 1000 nM.

Regarding `COC(=O)c1csc(C(=O)c2cn(CO)c3ccccc23)n1` [Compound 37], the EC50 is 1 to 1000 nM.

Turning to `COC(=O)c1csc(C(=O)c2cn(C3OC(COC(C)=O)C(OC(C)=O)C(OC(C)=O)C3OC(C)=O)c3ccccc23)n1` (stereo not shown) [Compound 38-1], the EC50 lay in the range of 1 to 1000 nM.

The molecule `COC(=O)c1csc(C(=O)c2cn(C3OC(COC(C)=O)C(OC(C)=O)C(OC(C)=O)C3OC(C)=O)c3ccccc23)n1` (stereo not shown) [Compound 38-2] came in with an EC50 of 1 to 1000 nM.

Regarding `COC(=O)c1csc(C(=O)c2cn(C3OC(COC(C)=O)C(O)C(O)C3O)c3ccccc23)n1` (stereo not shown) [Compound 38-3], the concentration giving a half-maximal response (EC50) lay within 1 to 1000 nM.

`COC(=O)c1csc(C(=O)c2cn(C3OC(CO)C(O)C(O)C3O)c3ccccc23)n1` (stereo not shown) [Compound 38-4] returned an EC50 of 1 to 1000 nM.

`O=C(c1nc(-c2cnccn2)cs1)c1c[nH]c2ccccc12` [Compound 39] registered an EC50 of 1 to 1000 nM.

For the molecule `O=C(c1nc(-c2ccco2)cs1)c1c[nH]c2ccccc12` [Compound 40], the EC50 was 1 to 1000 nM.

Consider `O=C(c1nc(C2CC2)cs1)c1c[nH]c2ccccc12` [Compound 41], for which the EC50 lay within 1 to 1000 nM.

Regarding `CC(C)[C@H](NC(=O)OC(C)(C)C)C(=O)n1cc(C(=O)c2nc(-c3nccs3)cs2)c2ccccc21` [Compound 42-1], the concentration giving a half-maximal response (EC50) lay in the range of 1 to 1000 nM.

In turn, `CC(C)[C@H](N)C(=O)n1cc(C(=O)c2nc(-c3nccs3)cs2)c2ccccc21` [Compound 42-2] yielded an EC50 of 1 to 1000 nM.

For the molecule `O=C(c1nc(-c2c[nH]cn2)cs1)c1c[nH]c2ccccc12` [Compound 43-2], the EC50 was 1 to 1000 nM.

`Nc1nc(-c2csc(C(=O)c3c[nH]c4ccccc34)n2)cs1` [Compound 44] showed an EC50 of 1 to 1000 nM.
